The values below come from patent US20100240617A1, “BICYCLIC SPHINGOSINE 1-PHOSPHATE ANALOGS” (University of Virginia Patent Foundation, priority 2007, published 2010).

In this test the test system is lymphocytes in blood. In words: lymphopenia assay. It is filed as in vivo. The following applies: mice, 8 doses, 3 mice per dose. The method, then:
Compounds (e.g., primary alcohols such as compound VIII) are dissolved in 2% hydroxypropyl beta-cyclodextrin and introduced into groups of mice by oral gavage at doses from 0.01, 1.0 and 10 mg/kg body weight. After 24 hours and 48 hours, the mice are lightly anesthetized and ca. 0.1 ml of blood is drawn from the orbital sinus. The number of lymphocytes (in thousands per microliter of blood; normal is 4-11) is determined using a Hemavet blood analyzer. There are three mice/group, the strain was mixed sv129×C57BL/6. Active compounds (e.g., compound VIII-C and compound VIII-D) are dissolved in acidified DMSO at 20 mM, and diluted 1:20 into 2% hydroxypropyl beta-cyclodextrin in water with mixing. […]

On to `CCCCCCCCc1ccc2c(c1)CCC(C(N)(CO)CO)C2` (single isomer, unassigned; (+)) [VIII-A, (+)-2-Amino-2-(6-octyl-1,2,3,4-tetrahydro-naphthalen-2-yl)-propane-1,3-diol], for which the “ED50 in the lymphopenia assay” value is 0.2 mg/kg.
Then `CCCCCCCCc1ccc2c(c1)CCC(C(N)(CO)CO)C2` (single isomer, unassigned; (-)) [VIII-B, (−)-2-Amino-2-(6-octyl-1,2,3,4-tetrahydro-naphthalen-2-yl)-propane-1,3-diol], with 2 mg/kg.
